# “Also recorded” adds a separate entry of the source. Square brackets hold non-standard residues; d marks the D form. Ends that are not written are not given here. Abu = CC[C@H](N)C(=O)O; Aib = CC(C)(N)C(=O)O
# Assays:
# Assay type in all cases: cell-based
# [1] = test system: Mv-1-Lu mink lung epithelial cells; test: Inhibition of DNA synthesis (3H-thymidine incorporation) and proliferation of Mv-1-Lu cells; details: for Inhibition of DNA synthesis / proliferation of Mv-1-Lu cells (in words): 10−9 to 10−6 M range; for Inhibition in comparison to cytomodulin (Inhib by new peptide/Inhib by cytomodulin): 3H-thymidine incorporation, MV-1-Lu cells; for % Inhibition of incorporation of 3H-thymidine / 3H-Radioactivity: MV-1 Lu cells; for 3H-Radioactivity: control without peptide 3.57
# Procedure: The effect of TGF-β and cytomodulin were evaluated by determining the rate of […]thyidine incorporation into total acid-insoluble DNA and cell number. See generally, Sampath et al., Journal of Biological Chemistry, 267, pp. 20352-20362 (1992). DNA synthesis rates were determined in triplicate cultures after 24 hour treatment with various concentrations (10−9 M to 10^−6M) of either TGF-β or cytomodulin (which was synthesized by the Merrifield method) by adding [methyl-^3H]thymidine (2 μCi/ml, 80 Ci/mmol) for 6 hours before the termination of the culture. Incorporation was terminated by aspiration of the medium, and after washing three times with phosphate-buffered saline, the trichloroacetic acid (10%)-precipitated radioactive DNA was extracted with 1.0% (w/v) sodium dodecyl sulfate, 0.1 M NaOH and quantitated by liquid scintillation counting. For cell number determination, 1×10^5 cells were plated in flasks in MEM containing 10% FBS, and after 24 hours, the growth medium was replaced with serum-free medium containing various conceptions of TGF-β and cytomodulin. Triplicate cultures were harvested every 24 hours for the duration of 7 days, and the cell number was determined by counting cells released by trypsin digestion in a fixed volume hemacytometer.
# The numbers shown at the various concentration are the ratio of the inhibition rate of the peptide being tested over the inhibition rate of cytomodulin (SEQ ID NO: 1) at the same concentration.
# Tests for bioactivity were conducted as described above for DNA inhibition.
# [2] = test system: NRK-49 F normal rat kidney fibroblasts; test: Growth and colony formation by NRK-49 F fibroblasts in soft agar; details: for Colony formation in soft agar: 100 nM
# Procedure: The original assay for TGF-β, the ability to promote anchorage independent growth of normal fibroblasts is still one of the hallmarks of TGF-β activity. NRK-49 F fibroblasts were grown at 37° C. in DEM supplemented with 10% fetal calf serum. […] To this, either 100 nM TGF-β (positive control) or 100 nM cytomodulin was added. NRK49 F fibroblasts (5×10^4 cells/ml) were mixed with 0.3% agar were plated on the bottom of 35 mm culture dishes. Colony formation was observed starting on day 3 of culture.
# [3] = test system: TGF-β activity; test: TGF-β like activity, overall statement, test not specified
# [4] = test system: human osteogenic sarcoma (HOS) cell line; test: Gene expression in HOS cells (Northern analysis)
# Procedure: (§1) Total cellular RNA was isolated using essentially the method described by Maniatis. Sambrook et al., Molecular Cloning: A Laboratory Marual, Cold Spring Harbor Laboratory Press, Second Edition (1989). Cells were lysed with 0.5% SDS and 0.1 potassium acetate. The lysate was extracted with phenol and centrifuiged at 5000 rpm for 15 minutes. The aqueous phase was precipitated with 2 volumes ethanol in 0.1 M Tris, pH 8.0 and 0.2 M NaCl. The pellet was resuspended and quantitated by measuring the ultraviolet absorbance at 260 nm. RNA purity was assessed by comparing the ultraviolet absorbance at 260 inm with that at 280 nm.
# (§2) RNA (10 μg/lane) was electrophoresed at 3 to 4 v/cm through a 0.7% agarose, 2.2 M formaldehyde denaturing gel. RNA was transferred by capillary transfer to nylon membranes. RNA integrity, gel loading, and transfer efficiency were assessed by methylene blue stained 28S and 18 S bands. The filters were baked at 80° C. for 2 hours to immobilize the RNA. After baking, the filters were hybridized at 65° C. in 0.5 M NaPO4 buffer, pH 7.0, containing 1 mM EDTA, 7% sodium dodecyl sulfate, and 1% bovine serum albumin. cDNA probes were labeled with DDIG […] by the random primer method, using Klenow enzyme. Hybridization for 18 hours at 65° C. followed by washing, was performed.
# (§3) Data were analyzed by scanning digoxigenin-dVTP according to manufacturer's procedure (Boehringer Mannheim Biochemica, DIG DNA labelling kit, Cat. No. 1175033).
# [5] = test system: human dermal fibroblasts; test: Gene expression in human dermal fibroblasts (Northern analysis)
# Procedure: as §1, §2, §3
# [6] = 1 mM peptide (so in the source)
substance,measurement,setting,value
L-I-A-P-E-A (LIAPEA; TGF-beta mimic) [L1],Inhibition of DNA synthesis / proliferation of Mv-1-Lu cells (in words),[1],inhibited the proliferation
same,Growth and colony formation of NRK-49F cells in soft agar (in words),[2],promoted the growth
same,TGF-β like activity,[3],at least as much TGF-β like activity as cytomodulin
same,Expression of TGF-β,[4],increased the expression
same,Expression of alkaline phosphatase,[4],increased the expression
same,Expression of type I collagen,[4],increased the expression
same,Expression of TGF-β,[5],increased the expression
same,Expression of collagenase,[5],decreased the expression
same,Expression of type I collagen,[5],increased the expression
L-I-A-E-A-A (LIAEAA; TGF-beta mimic) [SEQ ID NO:11],Inhibition in comparison to cytomodulin (Inhib by new peptide/Inhib by cytomodulin),[1]; 1 nM,1.16
same,Inhibition in comparison to cytomodulin (Inhib by new peptide/Inhib by cytomodulin),[1]; 10 nM,1.00
same,Inhibition in comparison to cytomodulin (Inhib by new peptide/Inhib by cytomodulin),[1]; 100 nM,1.17
same,Inhibition in comparison to cytomodulin (Inhib by new peptide/Inhib by cytomodulin),[1]; 1000 nM,1.85
same,Inhibition of DNA synthesis / proliferation of Mv-1-Lu cells (in words),[1],at least as much activity as cytomodulin
L-(Aib)-A-E-A-K (L[Aib]AEAK) [SEQ ID NO:4],% Inhibition of incorporation of 3H-thymidine,[1]; 5 nM peptide,35%
same,3H-Radioactivity,[1]; 5 nM peptide,2.31 10^3 dpm
same,% Inhibition of incorporation of 3H-thymidine,[1]; 50 nM peptide,46%
same,3H-Radioactivity,[1]; 50 nM peptide,1.94 10^3 dpm
same,% Inhibition of incorporation of 3H-thymidine,[1]; 100 nM peptide,60%
same,3H-Radioactivity,[1]; 100 nM peptide,1.44 10^3 dpm
same,% Inhibition of incorporation of 3H-thymidine,[1]; 500 nM peptide,55%
same,3H-Radioactivity,[1]; 500 nM peptide,1.61 10^3 dpm
same,% Inhibition of incorporation of 3H-thymidine,[1]; [6],27%
same,3H-Radioactivity,[1]; [6],2.60 10^3 dpm
G-G-Q-I-A-N-I (GGQIANI; TGF-beta mimic) [SEQ ID NO:7],TGF-β like activity,[3],did not display significant TGF-β activity
L-I-A-E-A-K (LIAEAK; TGF-beta mimic) [L2],Inhibition of DNA synthesis / proliferation of Mv-1-Lu cells (in words),[1],inhibited the proliferation
same,Growth and colony formation of NRK-49F cells in soft agar (in words),[2],promoted the growth
same,TGF-β like activity,[3],at least as much TGF-β like activity as cytomodulin
same,Expression of TGF-β,[4],increased the expression
same,Expression of alkaline phosphatase,[4],increased the expression
same,Expression of type I collagen,[4],increased the expression
same,Expression of TGF-β,[5],increased the expression
same,Expression of collagenase,[5],decreased the expression
same,Expression of type I collagen,[5],increased the expression
A-N-V-A-E-N-A (ANVAENA; TGF-beta mimic) [cytomodulin],Inhibition of DNA synthesis / proliferation of Mv-1-Lu cells (in words),[1],inhibition of DNA synthesis; also recorded: at least as much as TGF-β
same,Colony formation in soft agar,[2]; with EGF and PDGF,formed colonies to approximately the same extent as the TGF-β cultures; also recorded: much larger colonies
same,Colony formation in soft agar,[2]; without EGF and PDGF,did induce colony formation; also recorded: formation of small colonies
same,Expression of TGF-β,[4],increased the expression
same,Expression of alkaline phosphatase,[4],stimulate; also recorded: increased the expression
same,Expression of osteonectin,[4],stimulate
same,Expression of type I collagen,[4],increased the expression
same,Expression of type I collagen,[5],induction of increased expression
L-(Abu)-A-E-A-K (L[Abu]AEAK) [SEQ ID NO:6],% Inhibition of incorporation of 3H-thymidine,[1]; 1 nM peptide,33%
same,3H-Radioactivity,[1]; 1 nM peptide,2.02 10^3 dpm
same,% Inhibition of incorporation of 3H-thymidine,[1]; 5 nM peptide,35%
same,3H-Radioactivity,[1]; 5 nM peptide,1.97 10^3 dpm
L-I-(D-Ala)-E-A-K (LI[dA]EAK) [SEQ ID NO:39],Bioactivity as agonist (tested as for DNA inhibition),[1]; Example 7,active as an agonist
L-I-A-G-E-G (LIAGEG; TGF-beta mimic) [SEQ ID NO:14],Inhibition in comparison to cytomodulin (Inhib by new peptide/Inhib by cytomodulin),[1]; 1 nM,0.66
same,Inhibition in comparison to cytomodulin (Inhib by new peptide/Inhib by cytomodulin),[1]; 10 nM,0.85
same,Inhibition in comparison to cytomodulin (Inhib by new peptide/Inhib by cytomodulin),[1]; 100 nM,1.41
same,Inhibition in comparison to cytomodulin (Inhib by new peptide/Inhib by cytomodulin),[1]; 1000 nM,1.88
E-G-I-A-G-K (EGIAGK; TGF-beta mimic) [SEQ ID NO:8],TGF-β like activity,[3],did not display significant TGF-β activity

# Reference: patent US6638912B2, “Peptide compositions mimicking TGF-β activity” (The Regents of the University of California, priority 1995, dated 2003)
